Experiment [1] deals with Acetylcholinesterase (Homo sapiens, UniProt P22303). As to the kind of experiment: Inhibition of AChE (unknown origin) assessed as inhibition of acetylcholine hydrolysis preincubated for 15 mins by Ellman method.
In experiment [2] the test system is A498. As to the kind of experiment: Cytotoxicity against human A498 cells up to 200 uM by modified MTT assay. It is filed as functional, cell-based.
Experiment [3] relates to ACHN. The experiment is described as follows: Cytotoxicity against human ACHN cells up to 200 uM by modified MTT assay. It counts as functional, cell-based. Background: Tetrazolium assays rely on reduction of a dye to a coloured formazan, in cell work by metabolically active cells.

The source made the active and inactive calls. No cut-off for these calls is given here.

Acetylcholinesterase, sequence (P22303 whole entry): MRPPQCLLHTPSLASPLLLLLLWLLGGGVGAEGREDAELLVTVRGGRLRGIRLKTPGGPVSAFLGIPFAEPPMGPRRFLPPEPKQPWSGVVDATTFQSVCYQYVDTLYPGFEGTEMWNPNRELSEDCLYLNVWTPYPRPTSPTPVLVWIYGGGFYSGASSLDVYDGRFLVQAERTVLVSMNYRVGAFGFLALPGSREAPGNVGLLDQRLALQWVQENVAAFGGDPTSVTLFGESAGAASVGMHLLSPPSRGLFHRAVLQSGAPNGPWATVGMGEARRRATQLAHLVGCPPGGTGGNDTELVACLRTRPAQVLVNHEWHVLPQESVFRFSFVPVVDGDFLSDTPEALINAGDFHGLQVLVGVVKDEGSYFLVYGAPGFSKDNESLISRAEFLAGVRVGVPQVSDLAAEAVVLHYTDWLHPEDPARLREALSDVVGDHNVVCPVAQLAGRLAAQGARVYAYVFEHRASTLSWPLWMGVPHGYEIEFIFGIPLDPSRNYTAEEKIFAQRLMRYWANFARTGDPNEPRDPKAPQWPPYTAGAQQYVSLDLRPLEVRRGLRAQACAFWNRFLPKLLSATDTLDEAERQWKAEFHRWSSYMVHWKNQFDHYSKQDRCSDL

Take `CNc1ccccc1-c1nc(C(=O)O)cs1`: the IC50 – broadly, the concentration that gives 50% inhibition – in experiment [1] is 68 µM. The result in experiment [2] and in experiment [3] was inactive.

`CNc1ccccc1-c1nc(C(=O)OC)cs1`: the IC50 in experiment [1] amounted to 63 µM. Also, the result in experiment [2] and in experiment [3] was inactive.

For the molecule `CNc1ccccc1-c1nc(C(N)=O)cs1`, the IC50 in experiment [1] is 53 µM. Besides, the result in experiment [2] and in experiment [3] was inactive.

The values are drawn from ChEMBL document CHEMBL3351633, “Anithiactins A-C, modified 2-phenylthiazoles from a mudflat-derived Streptomyces sp” (J Nat Prod, 2014).
